Like-named read-outs stand apart in the source and are kept apart here.

The subject of assay [1] is immature ovariectomized rats. The experiment in a line: Estrogen agonistic activity: increase in uterine weight in immature ovariectomized rats. It counts as in vivo, rat. Particulars: 3 days, percent of ovariectomized + vehicle group. As to the method: Twenty-one-day-old immature female rats are bilaterally ovariectomized under light ether anaesthesia and, after post-operative rest for 7 days, are randomized into different treatment groups. Each rat receives the compound of the invention once daily for 3 consecutive days on days 28-30 of age. A separate group of animals receiving only the vehicle for similar duration serves as control. A autopsy 24 h after the last treatment on day 31 of age, vaginal smear of each rat is taken and uterus is carefully exised, gently blotted, weighed and fixed for histology and histomorphometry using image analysis. Premature opening of vagina, cornification of vaginal epitelium, increase in uterine fresh weight, total uterine and endometrial area and uterine luminal epithelial cell height are taken as parameters for evaluation of estrogen agonistic activity in comparision to rats of vehicle control group.

For a further assay, the system named is MCF-7 cells. Nature of the assay: Antiproliferative/cytotoxic activity in cultured MCF-7 cells (SRB assay). The format is cell-based. The settings on record: Homo sapiens, MCF7, 48 h, MCF-7, 48 h. As to the method:
The procedure is based on the following methods: New calorimetric assay for anticancer drug screening, Skehan et al., J Natn Cancer Inst, 82,1107, 1990 and Feasibility of a high-flux anticancer drug screen using a diverse panel of cultured human tumor cell lines, J Natn Cancer Inst, 83,757, 1991.
A fully confluent flask of MCF-7 cells in trypsinized and 10^4 cells/well are plated in a 96 welled flat bottomed plate in 200 μl Minimum Essential Medium (MEM), pH 7.4 and allowed to attach for 24 h at 37° C. in a humidified CO2 incubator. Subsequently, the compound of invention dissolved in DMSO or ethanol is added at a specified concentration and further incubated for 48 h as before. The cells are then fixed in 50 μl cold 50% TCA and incubated for 1 h at 4° C. The supernatant is discarded and the plate is washed five times with deionized water and air-dried. 100 μl of 0.4% (w/v) Sulforhodamine B (SRB) in 1% acetic acid is added to each well and incubated at room temperature for 30 minutes. Unbound SRB is removed by five washes with chilled 1% acetic acid and the plate is air-dried. 200 μl of unbuffered 10 mM Tris base is added to solublize the bound stain for 5 minutes at room temperature and O.D. is read at 560 nm in a plate reader. The graph is plotted between O.D. and concentration and LC50 is calculated with respect to tamoxifen, which is used as a positive control.

For assay [2], the system named is immature ovariectomized rats. Nature of the assay: Estrogen antagonistic activity: inhibition in 17α-ethynylestradiol induced uterine weight gain in immature ovariectomized rats. The format is in vivo, rat. Particulars: 3 days. On the procedure:
Twenty-one-day-old immature female rats are bilaterally ovariectomized under light ether anaesthesia and after post-operative rest for 7 days, are randomized into different treatment groups. Each rat receives the compounds of the invention and 0.02 mg/kg dose of 17-alfa-ethynylestradiol in 10% ethanol-distilled water once daily for 3 consecutive days on days 28-30 of age. A separate group of animals receiving only 17-alfa-ethynylestradiol (0.02 mg/kg) in 10% ethanol-distilled water for similar duration are used for comparison. At autopsy on day 31 of age, vaginal smear of each rat is taken and uterus is carefully excised, gently blotted, weighed and fixed for histology and histomorphometry using image analysis. Inhibition in 17-alfa-ethynylestradiol-induced premature opening of vagina, cornification of vaginal epithelium, increase in uterine fresh weight, total uterine and endometrial area and uterine luminal epithelial cell height are taken as parameters for evaluation of estrogen antagonistic activity.

A further assay has as its target T1, estrogen receptors (Rattus norvegicus, UniProt P06211).
T1 construct: Aliquot of uterine cytosol (200 μl; 2 uteri per ml) prepared in TEA buffer; from tissue; host or cells: uterine cytosol of immature estradiol-primed 20-21 day old rats
T1 sequence (P06211 1-600): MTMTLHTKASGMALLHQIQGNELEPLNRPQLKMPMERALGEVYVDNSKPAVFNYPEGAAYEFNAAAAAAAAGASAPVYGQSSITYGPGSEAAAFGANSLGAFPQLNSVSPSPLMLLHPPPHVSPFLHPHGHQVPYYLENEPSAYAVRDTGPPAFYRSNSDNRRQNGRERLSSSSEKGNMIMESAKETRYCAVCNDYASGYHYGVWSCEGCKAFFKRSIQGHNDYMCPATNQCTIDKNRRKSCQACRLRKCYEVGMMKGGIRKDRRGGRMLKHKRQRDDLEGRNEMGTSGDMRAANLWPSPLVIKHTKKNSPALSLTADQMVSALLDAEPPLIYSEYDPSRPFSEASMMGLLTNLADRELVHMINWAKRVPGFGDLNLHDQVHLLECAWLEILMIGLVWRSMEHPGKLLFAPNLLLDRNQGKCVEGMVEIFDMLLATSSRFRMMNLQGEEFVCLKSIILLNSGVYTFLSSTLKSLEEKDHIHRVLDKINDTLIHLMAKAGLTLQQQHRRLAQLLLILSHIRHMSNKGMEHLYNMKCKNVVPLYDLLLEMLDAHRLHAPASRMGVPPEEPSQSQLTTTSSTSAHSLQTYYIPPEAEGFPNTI
Nature of the assay: Relative binding affinity (RBA) to estrogen receptors, 3H-estradiol competition assay. The arrangement: key: % of 17-beta-estradiol binding affinity (estradiol = 100). The settings on record: relative to 17-beta-estradiol (=100, percentage value); rat uterine cytosol, 3H-E2, 18 hrs at 4° C. As to the method: The relative binding affinity (RBA) of the compounds for estrogen receptor is determined by competition assay, employing ^3H-estradiol (^3H-E2) as the radioligand. The test ligands and ^3H-E2 are incubated at 4° C. with cystol estrogen receptors obtained from uteri of immature estradoil-primed (1 μg/rat 24 h before autopsy) 20-21 days old rats. Aliquot of uterine cytosol (200 μl; 2 uteri per ml) prepared in TEA buffer (10 mM Tris, 1.5 mM EDTA, 0.02% sodium azide, pH 7.4) are incubated in duplicate with a fixed concentration of ^3H-E2 in the absence or presence of various concentrations of the competitor substance dissolved in 30 μl of the TEA buffer containing DMF as co-solvent (final concentration of DMF in the incubation mixture never exceeded 5%) for 18 hrs at 4° C. At the end of this period, dextran coated charcoal (5% Norit 0.5% dextran) suspension in 100 μl of TEA buffer is added to each tube, briefly vortexed and allowed to stand for 15 minutes at 4° C. The mixture is centrifuged at 800 g for 10 minutes and the supernatants counted for radioactivity in 10 ml of a dioxane-based scintillation fluid. RBA of the text compound is computed from a graph plotted between percent bound radioactivity verses log concentration of the test substance. […] This when multiplied with 100 gives the percentage value designated as RBA.

For the next assay, the system named is adult female rats. The experiment in a line: Post-coital antifertility efficacy in adult female rats. The format is in vivo, rat. The settings on record: daily dose 10 mg/kg, oral, days 1-7 post-coitum. The text has this:
Adult female rats are caged overnight with coeval males of proven fertility and their vaginal smears are checked on the following morning. The day of presence of spermatozoa in the vaginal smear is taken as day 1 of pregnancy. Mated rats are isolated and randomized into various treatment groups and treated orally with the compound of invention or the vehicle on days 1-7/1-5 post-coitum. Animals of all the groups are autopsied on day 10 post-coitum and number and status of corpora lutea and implantation sites in each rat are recorded. The compounds of the present invention are considered active if there is complete absence of implantations in the uterus of all rats, in comparison to presence of normal implantations in the uterus of rats of vehicle control group.

On to `C#C[C@]1(O)CC[C@H]2[C@@H]3CCc4cc(O)ccc4[C@H]3CC[C@@]21C` [17α-Ethynylestradiol, reference compound], for which the “Percent increase in uterine weight” value in assay [1] (daily dose 0.01 mg/kg) is 419%.
On to `c1ccc2c(c1)SCCc1c-2n(CCCCN2CCCCC2)c2ccccc12` [Example number 9, 12-[4-(Piperidine-1-yl)butyl]-6,7-dihydro-12H-benzothiepino [5,4-b]indole], for which the CC50 with MCF-7 cells (read-out: LC50, Test-2) turned out to be 37.4 µM.
Consider `CCCCN(C)CCCCCn1c2c(c3ccccc31)CCSc1ccccc1-2.O=C1O[C@H]([C@@H](O)CO)C(O)=C1O` [Example number 15, 12-[5-(N-butylmethylamino)pentyl]-6,7-dihydro-12H-benzothiepino [5,4-b]indole ascorbic acid salt], for which the “Percent increase in uterine weight” value in assay [1] (daily dose 1 mg/kg) worked out at 11.00%; in assay [1] (daily dose 3 mg/kg) it was 15.00%; in assay [1] (daily dose 10 mg/kg), 11.50%. The results for the “Percent inhibition in 17α-ethynylestradiol induced uterine weight gain” value in assay [2] (daily dose 1 mg/kg with 0.02 mg/kg 17-alfa-ethynylestradiol), in assay [2] (daily dose 3 mg/kg with 0.02 mg/kg 17-alfa-ethynylestradiol) and in assay [2] (daily dose 10 mg/kg with 0.02 mg/kg 17-alfa-ethynylestradiol) were 10.00%, 23.00% and 15.00%, respectively.
In the case of `c1ccc2c(c1)SCCc1c-2n(CCCCCCN2CCCC2)c2ccccc12` [Example number 19, 12-[6-(Pyrrolidine-1-yl)hexyl]-6,7-dihydro-12H-benzothiepino [5,4-b]indole], the RBA at estrogen receptors came out at 0.053.
Turning to `CCCCN(C)CCCCCCn1c2c(c3ccccc31)CCSc1ccccc1-2` [Example number 20, 12-[6-(N-butylmethylamino)hexyl]-6,7-dihydro-12H-benzothiepino [5,4-b]indole], at estrogen receptors, the RBA is 0.10.
As for `COc1ccc2c(c1)SCCc1c-2n(CCCCCN2CCCCC2)c2ccccc12` [Example number 22, 3-Methoxy-12-[5-(piperidine-1-yl)pentyl]-6,7-dihydro-12H-benzothiepino [5,4-b]indole], the CC50 with MCF-7 cells (read-out: LC50, Test-4) was determined as 19.5 µM. On estrogen receptors, the RBA was under 0.001.
Take `COc1ccc2c(c1)SCCc1c-2n(CCCCCN2CCCC2)c2ccccc12` [Example number 23, 3-Methoxy-12-[5-(pyrrolidine-1-yl)pentyl]-6,7-dihydro-12H-benzothiepino [5,4-b]indole]: in the assay with MCF-7 cells (read-out: LC50, Test-4), the CC50 came to 60 µM. Besides, the RBA on estrogen receptors is on record as under 0.001.
`Oc1ccc2c(c1)SCCc1c-2n(CCCCCN2CCCC2)c2ccccc12` [Example number 25, 3-Hydroxy-12-[5-(pyrrolidine-1-yl)pentyl]-6,7-dihydro-12H-benzothiepino [5,4-b]indole]: the CC50 in the assay with MCF-7 cells (read-out: LC50, Test-2) was determined as 15 µM. The RBA on estrogen receptors stood at 0.83.
As to `Oc1ccc2c(c1)c1c(n2CCCCCN2CCCCC2)-c2ccccc2SCC1` [Example number 29, 9-Hydroxy-12-[5-(piperidine-1-yl)pentyl]-6,7-dihydro-12H-benzothiepino [5,4-b]indole], the “% Efficacy” value in the assay on adult female rats is reported as “Inactive”. Moreover, the RBA on estrogen receptors is listed as under 0.001.
With `COc1ccc2c(c1)SCCc1c-2n(CCCCCN2CCCCC2)c2ccc(OC)cc12` [Example number 32, 3,9-Dimethoxy-12-[5-(piperidine-1-yl)pentyl]-6,7-dihydro-12H-benzothiepino [5,4-b]indole], the CC50 in the assay on MCF-7 cells (read-out: LC50, Test-4) is 28 µM. For the same compound, the RBA at estrogen receptors is under 0.001.
On the same counts, the results for `COc1ccc2c(c1)SCCc1c-2n(CCCCCN2CCCC2)c2ccc(OC)cc12` [Example number 33, 3,9-Dimethoxy-12-[5-(pyrrolidine-1-yl)pentyl]-6,7-dihydro-12H-benzothiepino [5,4-b]indole] are 18.2 µM and under 0.001.
Turning to `CCCCN(C)CCCCCn1c2c(c3cc(OC)ccc31)CCSc1cc(OC)ccc1-2` [Example number 34, 3,9-Dimethoxy-12-[5-(N-butylmethylamino)pentyl]-6,7-dihydro-12H-benzothiepino [5,4-b]indole], the RBA on estrogen receptors came out at 0.032.
Take `c1ccc2c(c1)SCCc1c-2n(Cc2ccc(OCCCCCN3CCCCC3)cc2)c2ccccc12` [Example number 43, 12-[4-(5-Piperidin-1-yl-pentyloxy)benzyl]-6,7-dihydro-12H-benzothiepino [5,4-b]indole]: the “% Efficacy” value in the assay on adult female rats is “Inactive”.
`c1ccc2c(c1)SCCc1c-2n(Cc2ccc(OCCCCCN3CCCCC3)cc2)c2ccccc12` [Example number 60, 12-[4-(5-Piperidin-1-yl-pentyloxy)benzyl]-6,7-dihydro-12H-benzothiepino [5,4-b]indole]: in the assay with MCF-7 cells (read-out: LC50, Test-4), the CC50 was 18.4 µM. In the assay with adult female rats, the “% Efficacy” value is on record as “Inactive”.
Take `CC/C(=C(\c1ccccc1)c1ccc(OCCN(C)C)cc1)c1ccccc1` [Tamoxifen, reference compound]: the CC50 is 18.5 µM with MCF-7 cells (read-out: LC50, Test-1); 5.5 µM with MCF-7 cells (read-out: LC50, Test-2); 12.4 µM in the assay on MCF-7 cells (read-out: LC50, Test-3); 9.8 to 10 µM in the assay on MCF-7 cells (read-out: LC50, Test-4).

The values are drawn from patent US20050282863A1, “Novel-N substituted dihydrobenzothiepino, dihydrobenzoxepino and tetrahydro benzocyclohepta indoles as selective estrogen receptor modulators” (Council of Scientific & Industrial Research, priority 2004, published 2005).
